Results: patent publication US10906940B2, “Antimicrobial peptides, pharmaceutical compositions, and methods of use thereof” (priority 2014, dated 2021)
≈ marks a conversion by molar mass, not a printed value. Where a SMILES comes first, the peptide text is derived from it. Bridges are numbered along the chain shown (N, C = ends). [ ]: non-standard residue; d: D form. The star is where a group is joined. Tridecanoyl = CCCCCCCCCCCCC(=O)*; dOrn = NCCC[C@@H](N)C(=O)O

Columns and labels:
[1] = tested on: S. Heidelberg CVM 40140 (cmy-2); assay type: cell-based, Salmonella
Description: (§1) The same MIC assay as in Example 6 was used to determine the antimicrobial susceptibility of Compound A, L-form (FIG. 15), and several variants. One variant was Compound A, D-form, with D-Lysine at position 7. Compound B is a variant in the fatty acid chain, with a fatty acid chain composition of C15H29O, and having D-Lys at position 7. Compound C is a variant in the fatty acid chain with a fatty acid chain composition of C11H21O, and having D-Lys at position 7. Variant D is a sequence variant with Phe at position 6 of the cyclic peptide, and having D-Lys at position 7. All variants were chemically synthesized.

[2] = tested on: S. Newport CVM 40115 (cmy 2); assay type: cell-based, Salmonella
Description: as §1

[3] = tested on: S. Keur massar CVM 40135 (shv12); assay type: cell-based, Salmonella
Description: as §1

[4] = tested on: S. Bareilly CVM40145 (ACC-1); assay type: cell-based, Salmonella
Description: as §1

[5] = tested on: S. Typhimurium CVM 40117 (ctx-m-5); assay type: cell-based, Salmonella
Description: as §1

[6] = tested on: K. pneumonia CVM 40142 (ges-1); assay type: cell-based, Klebsiella pneumoniae
Description: as §1

[7] = tested on: K. pneumonia CVM 15105 (shv5); assay type: cell-based, Klebsiella pneumoniae
Description: as §1

[8] = tested on: K. pneumoniae CVM 15102 (shv5); assay type: cell-based, Klebsiella pneumoniae
Description: as §1

[9] = tested on: K. pneumoniae CVM 9246 (shv18, oxa2); assay type: cell-based, Klebsiella pneumoniae
Description: as §1

[10] = tested on: E. coli CVM 35778 (ctx-m-2); assay type: cell-based, Escherichia coli
Description: as §1

[11] = tested on: E. coli CVM 40126 (oxa-1); assay type: cell-based, Escherichia coli
Description: as §1

E. coli CVM 15100 (mir1) = assay type: cell-based, Escherichia coli
Description: as §1

[12] = tested on: E. coli CVM 40136 (tem 52b); assay type: cell-based, Escherichia coli
Description: as §1

[13] = tested on: E. coli CVM 40141 (imp-1); assay type: cell-based, Escherichia coli
Description: as §1

[14] = tested on: E. coli CVM 40131 (ctx-m-2); assay type: cell-based, Escherichia coli
Description: as §1

[15] = tested on: E. coli CVM 40134 (ctx-m-15); assay type: cell-based, Escherichia coli
Description: as §1

[16] = tested on: P. aeruginosa CVM 40144 (PER-1); assay type: cell-based, Pseudomonas aeruginosa
Description: as §1

[17] = tested on: Serratia marcescens SAMN 04276915; assay type: cell-based; settings: SAMN 04276915
Description: as §1

[18] = tested on: Salmonella CVM 1290 (cmy2); assay type: cell-based
Description: as §1

[19] = tested on: Salmonella CVM 40118 (oxa-1); assay type: cell-based
Description: as §1

[20] = tested on: Serratia marcescens SAMN 04276914; assay type: cell-based; settings: SAMN 04276914
Description: as §1

[21] = tested on: Serratia marcescens SAMN04022954; assay type: cell-based; settings: SAMN04022954
Description: as §1

[22] = tested on: Salmonella CVM 40119 (tem 12); assay type: cell-based
Description: as §1

[23] = tested on: E. cloacae CVM 15101 (P99); assay type: cell-based, Enterobacter cloacae
Description: as §1

E. faecium ATCC 2320 = test: microbe, parasite or virus in culture; assay type: cell-based; settings: ATCC 2320
Description: as §1

E. faecium ATCC 700221 = test: microbe, parasite or virus in culture; assay type: cell-based; settings: ATCC 700221
Description: as §1

E. faecium BAA-2318 = test: microbe, parasite or virus in culture; assay type: cell-based; settings: BAA-2318
Description: as §1

E. faecalis BAA-2365 = test: microbe, parasite or virus in culture; assay type: cell-based, Enterococcus faecalis; settings: BAA-2365
Description: as §1

E. faecalis ATCC 51575 = test: microbe, parasite or virus in culture; assay type: cell-based, Enterococcus faecalis; settings: ATCC 51575
Description: as §1

Question: CCCCCCCCCCCCC(=O)N[C@H](CCCN)C(=O)N[C@H](C(=O)N[C@@H]1C(=O)N[C@H](CCCN)C(=O)N[C@@H](CO)C(=O)N[C@@H](Cc2ccc(O)cc2)C(=O)N[C@@H](CCCCN)C(=O)N[C@H](CO)C(=O)N[C@@H]([C@@H](C)CC)C(=O)N2CCC[C@H]2C(=O)N[C@@H]([C@@H](C)CC)C(=O)N2CCC[C@H]2C(=O)N[C@@H]([C@@H](C)CC)C(=O)O[C@@H]1C)C(C)C [Compound A L-form] (Tridecanoyl-[dOrn]VT[dOrn]SYK[dS]IPIPI; ester 3-C) was tested. Which MIC [1] did it give?
Answer: 16 µg/mL (≈ 9.85 µM)

Question: And the MIC [2]?
Answer: 8 µg/mL (≈ 4.93 µM)

Question: What about the MIC [3] of the same molecule?
Answer: 16 µg/mL (≈ 9.85 µM)

Question: And the MIC [4]?
Answer: 16 µg/mL (≈ 9.85 µM)

Question: What about the MIC [5] of the same molecule?
Answer: 8 µg/mL (≈ 4.93 µM)

Question: And the MIC [6]?
Answer: 8 µg/mL (≈ 4.93 µM)

Question: What about the MIC [7] of the same molecule?
Answer: 8 µg/mL (≈ 4.93 µM)

Question: And the MIC [8]?
Answer: 8 µg/mL (≈ 4.93 µM)

Question: What about the MIC [9] of the same molecule?
Answer: 8 µg/mL (≈ 4.93 µM)

Question: And the MIC [10]?
Answer: 8 µg/mL (≈ 4.93 µM)

Question: What about the MIC [11] of the same molecule?
Answer: 4 µg/mL (≈ 2.46 µM)

Question: What about the MIC (E. coli CVM 15100 (mir1)) of the same molecule?
Answer: 8 µg/mL (≈ 4.93 µM)

Question: And the MIC [12]?
Answer: 8 µg/mL (≈ 4.93 µM)

Question: What about the MIC [13] of the same molecule?
Answer: 32 µg/mL (≈ 19.7 µM)

Question: And the MIC [14]?
Answer: 4 µg/mL (≈ 2.46 µM)

Question: And the MIC [15]?
Answer: 8 µg/mL (≈ 4.93 µM)

Question: What about the MIC [16] of the same molecule?
Answer: 32 µg/mL (≈ 19.7 µM)

Question: What about the MIC [17] of the same molecule?
Answer: ≥128 µg/mL

Question: And the MIC [18]?
Answer: 8 µg/mL (≈ 4.93 µM)

Question: And the MIC [19]?
Answer: 4 µg/mL (≈ 2.46 µM)

Question: What about the MIC [20] of the same molecule?
Answer: 64 µg/mL (≈ 39.4 µM)

Question: And the MIC [21]?
Answer: ≥128 µg/mL

Question: And the MIC [22]?
Answer: 8 µg/mL (≈ 4.93 µM)

Question: And the MIC [23]?
Answer: 8 µg/mL (≈ 4.93 µM)

Question: What about the MIC (E. faecium ATCC 2320) of the same molecule?
Answer: 4 µg/mL (≈ 2.46 µM)

Question: And the MIC (E. faecium ATCC 700221)?
Answer: 4 µg/mL (≈ 2.46 µM)

Question: And the MIC (E. faecium BAA-2318)?
Answer: 4 µg/mL (≈ 2.46 µM)

Question: And the MIC (E. faecalis BAA-2365)?
Answer: 8 µg/mL (≈ 4.93 µM)

Question: What about the MIC (E. faecalis ATCC 51575) of the same molecule?
Answer: 8 µg/mL (≈ 4.93 µM)
